Results published in US8952024B2, “Herbicidal pyrimidone derivatives” (E I du Pont de Nemours and Company, priority 2009, dated 2015).

Legend:
Test in all cases: Test B pre-/postemergence plant response
Assay type in all cases: in vivo
soybean (Glycine max) = conditions: Postemergence
Excerpt: (§1) Seeds of plant species selected from blackgrass (Alopecurus myosuroides), downy bromegrass (Bromus tectorum), green foxtail (Setaria viridis), Italian ryegrass (Lolium multiflorum), wheat (Triticum aestivum), wild oat (Avena fatua), deadnettle (henbit deadnettle, Lamium amplexicaule), galium (catchweed bedstraw, Galium aparine), bermudagrass (Cynodon dactylon), Surinam grass (Brachiaria decumbens), cocklebur (Xanthium strumarium), corn (Zea mays), large crabgrass (Digitaria sanguinalis), woolly cupgrass (Eriochloa villosa), giant foxtail (Setaria faberii), goosegrass (Eleusine indica), johnsongrass (Sorghum halepense), kochia (Kochia scoparia), lambsquarters (Chenopodium album), morningglory (Ipomoea coccinea), nightshade (eastern black nightshade, Solanum ptycanthum), yellow nutsedge (Cyperus esculentus), pigweed (Amaranthus retroflexus), ragweed (common ragweed, Ambrosia elatior), Russian thistle (Salsola kali), soybean (Glycine max), sunflower (common oilseed sunflower, Helianthus annuus) and velvetleaf (Abutilon theophrasti) were planted into a blend of loam soil and sand and treated preemergence with test compounds formulated in a non-phytotoxic solvent mixture which included a surfactant.
(§2) At the same time, plants selected from these crop and weed species and also winter barley (Hordeum vulgare), canarygrass (Phalaris minor), chickweed (Stellaria media) and windgrass (Apera spica-venti) were planted in pots containing Redi-Earth® planting medium (Scotts Company, 14111 Scottslawn Road, Marysville, Ohio 43041) comprising spaghnum peat moss, vermiculite, wetting agent and starter nutrients and treated with postemergence applications of some of the test chemicals formulated in the same manner. Plants ranged in height from 2 to 18 cm (1- to 4-leaf stage) for postemergence treatments.
(§3) Treated plants and controls were maintained in a greenhouse for 13 to 15 days, after which time all treated plants were visually evaluated and compared to controls. Plant response ratings, summarized in Table B, are based on a scale of 0 to 100 where 0 is no effect and 100 is complete control. A dash (-) response means no test result.

[1] = system: ragweed (common ragweed, Ambrosia elatior); conditions: Postemergence
Excerpt: as §1, §2, §3

[2] = system: Surinam grass (Brachiaria decumbens); conditions: Postemergence
Excerpt: as §1, §2, §3

corn (Zea mays) = conditions: Postemergence
Excerpt: as §1, §2, §3

[3] = system: morningglory (Ipomoea coccinea); conditions: Postemergence
Excerpt: as §1, §2, §3

[4] = system: Italian ryegrass (Lolium multiflorum); conditions: Postemergence
Excerpt: as §1, §2, §3

[5] = system: bermudagrass (Cynodon dactylon); conditions: for Plant response rating, Bermudagrass: Postemergence
Excerpt: as §1, §2, §3

[6] = system: blackgrass (Alopecurus myosuroides); conditions: for Plant response rating, Blackgrass: Postemergence
Excerpt: as §1, §2, §3

[7] = system: cocklebur (Xanthium strumarium); conditions: Postemergence
Excerpt: as §1, §2, §3

[8] = 31 g ai/ha, 0 to 100 scale (0 no effect, 100 complete control)
[9] = 62 g ai/ha, postemergence, 0 is no effect, 100 is complete control, 13 to 15 days
[10] = 62 g ai/ha, scale 0 to 100 (0 no effect, 100 complete control)
[11] = 125 g ai/ha, scale 0 to 100 (0 no effect, 100 complete control)

SMILES	Plant response rating, Soybean (soybean (Glycine max); 16 g ai/ha, 0 to 100 scale)	Plant response rating, Soybean (soybean (Glycine max); [8])	Plant response rating, Ragweed ([1]; 16 g ai/ha, 0 to 100 scale)	Plant response rating, Ragweed [1, 8]	Plant response rating, Surinam Grass ([2]; 16 g ai/ha, 0 to 100 scale)	Plant response rating, Surinam Grass [2, 8]	Plant response rating, Corn (corn (Zea mays); 16 g ai/ha, 0 to 100 scale)	Plant response rating, Corn (corn (Zea mays); [8])	Plant response rating, Morningglory ([3]; 16 g ai/ha, 0 to 100 scale)	Plant response rating, Morningglory [3, 8]	Plant response rating, Ryegrass, Italian ([4]; 16 g ai/ha, 0 to 100 scale)	Plant response rating, Ryegrass, Italian [4, 8]	Plant response rating, Bermudagrass ([5]; 16 g ai/ha, 0 to 100 scale)	Plant response rating, Bermudagrass [5, 8]	Plant response rating, Blackgrass ([6]; 16 g ai/ha, 0 to 100 scale)	Plant response rating, Blackgrass [6, 8]	Plant response rating, Cocklebur ([7]; 16 g ai/ha, 0 to 100 scale)	Plant response rating, Cocklebur [7, 8]	also measured
Cc1ccccc1-n1c(-c2cc(F)cc(F)c2)ncc(C(=O)C2=C(O)CCCC2=O)c1=O [Compound 159]	85	95	80	90	65	75	25	60	10	60	0	30	80	95	5	20	80	95	Plant response rating, Soybean (soybean (Glycine max); 8 g ai/ha, 0 to 100 scale): 80; Plant response rating, Ragweed ([1]; 8 g ai/ha, 0 to 100 scale): 65; Plant response rating, Surinam Grass ([2]; 8 g ai/ha, 0 to 100 scale): 65; Plant response rating, Corn (corn (Zea mays); 8 g ai/ha, 0 to 100 scale): 15; Plant response rating, Morningglory ([3]; 8 g ai/ha, 0 to 100 scale): 0; Plant response rating, Ryegrass, Italian ([4]; 8 g ai/ha, 0 to 100 scale): 0; Plant response rating, Bermudagrass ([5]; 8 g ai/ha, 0 to 100 scale): 70; Bermudagrass plant response rating (0 to 100 scale) [5, 9]: 100; Plant response rating, Blackgrass ([6]; 8 g ai/ha, 0 to 100 scale): 0; Blackgrass plant response rating (0 to 100 scale) [6, 9]: 25; Plant response rating, Cocklebur ([7]; 8 g ai/ha, 0 to 100 scale): 75
CC1(C)CC(=O)C(C(=O)c2cnc(-c3ccccc3)n(-c3ccccc3)c2=O)=C(O)C1 [Compound 225]	65	85	70	75	35	75	10	40	80	95	0	0	40	80	0	0	85	98	Plant response rating, Soybean (soybean (Glycine max); [10]): 95; Plant response rating, Ragweed [1, 10]: 80; Plant response rating, Surinam Grass [2, 10]: 75; Plant response rating, Corn (corn (Zea mays); [10]): 50; Plant response rating, Corn (corn (Zea mays); [11]): 70; Plant response rating, Morningglory [3, 10]: 95; Plant response rating, Morningglory [3, 11]: 95; Plant response rating, Ryegrass, Italian [4, 10]: 35; Plant response rating, Bermudagrass [5, 10]: 85; Plant response rating, Bermudagrass [5, 11]: 85; Plant response rating, Blackgrass [6, 10]: 5; Plant response rating, Blackgrass [6, 11]: 15; Plant response rating, Cocklebur [7, 10]: 100; Plant response rating, Cocklebur [7, 11]: 100
